Results reported in ChEMBL document CHEMBL1811766, “Structure-activity relationship studies of novel pyrazole and imidazole carboxamides as cannabinoid-1 (CB1) antagonists” (Bioorg Med Chem Lett, 2011).
pIC50: −log10 of the molar value. Values belong to the compound of their own block, whether it stands above or below them.

Tests used:
Cannabinoid receptor 1 = Cannabinoid receptor 1 (Rattus norvegicus, UniProt P20272); test: Displacement of [3H]SR141716A from rat brain CB1 receptor at pH 7.4 after 1 hr by liquid scintillation counting
Sequence of Cannabinoid receptor 1 (P20272 whole entry): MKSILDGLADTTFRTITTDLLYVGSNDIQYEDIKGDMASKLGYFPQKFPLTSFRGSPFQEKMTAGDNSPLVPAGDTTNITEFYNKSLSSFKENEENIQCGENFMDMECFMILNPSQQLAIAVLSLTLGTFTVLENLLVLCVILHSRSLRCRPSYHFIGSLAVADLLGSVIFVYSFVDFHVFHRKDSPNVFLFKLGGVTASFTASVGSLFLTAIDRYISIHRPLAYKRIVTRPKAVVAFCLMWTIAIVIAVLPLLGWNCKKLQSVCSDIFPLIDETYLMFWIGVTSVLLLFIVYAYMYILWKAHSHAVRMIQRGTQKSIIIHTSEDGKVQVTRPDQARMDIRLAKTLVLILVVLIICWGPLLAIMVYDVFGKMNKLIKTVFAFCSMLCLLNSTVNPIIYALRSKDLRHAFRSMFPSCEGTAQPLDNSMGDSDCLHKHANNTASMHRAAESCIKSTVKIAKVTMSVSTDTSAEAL

[1] = biological target: Cannabinoid receptor 1 (Rattus norvegicus) (UniProt P20272); test: Displacement of [3H]SR141716A from rat brain CB1 receptor at 100 nM at pH 7.4 after 1 hr by liquid scintillation counting
Sequence of Cannabinoid receptor 1 (Rattus norvegicus) (P20272 whole entry): as above

[2] = biological target: Cannabinoid receptor 1 (Rattus norvegicus) (UniProt P20272); test: Displacement of [3H]SR141716A from rat brain CB1 receptor at 1 uM at pH 7.4 after 1 hr by liquid scintillation counting
[3] = biological target: Voltage-gated inwardly rectifying potassium channel KCNH2 (Homo sapiens, UniProt Q12809); test: Inhibition of human ERG expressed in HEK293 cells assessed as inhibition of potassium channel current after 5 mins by patch clamp assay; format: cell-based
Sequence of Voltage-gated inwardly rectifying potassium channel KCNH2 (Q12809 whole entry): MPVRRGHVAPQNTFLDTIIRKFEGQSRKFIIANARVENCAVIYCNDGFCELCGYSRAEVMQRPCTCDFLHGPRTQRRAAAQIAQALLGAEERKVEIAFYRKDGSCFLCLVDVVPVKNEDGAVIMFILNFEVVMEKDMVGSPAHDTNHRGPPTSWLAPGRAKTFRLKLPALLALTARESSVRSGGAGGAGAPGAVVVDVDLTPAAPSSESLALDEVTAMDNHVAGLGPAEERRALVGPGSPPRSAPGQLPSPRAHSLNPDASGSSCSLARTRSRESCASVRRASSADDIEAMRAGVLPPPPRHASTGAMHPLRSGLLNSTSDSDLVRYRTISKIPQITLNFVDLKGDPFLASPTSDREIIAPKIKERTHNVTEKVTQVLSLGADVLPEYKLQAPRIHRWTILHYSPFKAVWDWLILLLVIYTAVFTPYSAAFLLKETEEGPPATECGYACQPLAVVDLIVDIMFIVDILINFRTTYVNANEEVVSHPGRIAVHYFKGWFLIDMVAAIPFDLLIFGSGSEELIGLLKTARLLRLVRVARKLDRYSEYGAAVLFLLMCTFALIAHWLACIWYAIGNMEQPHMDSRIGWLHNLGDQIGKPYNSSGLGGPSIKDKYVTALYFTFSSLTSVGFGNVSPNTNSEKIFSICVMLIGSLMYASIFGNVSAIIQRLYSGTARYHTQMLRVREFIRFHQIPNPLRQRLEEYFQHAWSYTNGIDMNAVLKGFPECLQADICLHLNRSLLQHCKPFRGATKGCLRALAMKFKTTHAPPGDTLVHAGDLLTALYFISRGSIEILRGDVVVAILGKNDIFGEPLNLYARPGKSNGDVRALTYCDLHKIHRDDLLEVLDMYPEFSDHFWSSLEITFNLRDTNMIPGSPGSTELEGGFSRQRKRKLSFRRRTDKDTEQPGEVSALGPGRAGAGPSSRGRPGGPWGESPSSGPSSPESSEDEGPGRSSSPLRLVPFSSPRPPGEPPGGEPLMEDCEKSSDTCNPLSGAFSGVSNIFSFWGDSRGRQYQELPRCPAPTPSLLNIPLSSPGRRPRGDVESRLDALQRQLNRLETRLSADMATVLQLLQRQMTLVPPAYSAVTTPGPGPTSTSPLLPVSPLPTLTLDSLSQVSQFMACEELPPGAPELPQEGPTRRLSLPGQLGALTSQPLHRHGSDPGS

hERG (KCNH2) [4] = biological target: T1, hERG (KCNH2) (Homo sapiens, UniProt Q12809); test: Inhibition of human ERG expressed in HEK293 cells assessed as inhibition of potassium channel current at 30 uM after 5 mins by patch clamp assay; format: cell-based; conditions: HEK293 cells expressing human ERG
T1 sequence (Q12809 whole entry): as above

Mus musculus [5] = test: Inhibition of WIN-55212 induced hypothermia in Swiss albino mouse assessed as change temperature at 10 mg/kg, po administered 30 mins after WIN55212 challenge measured after 30 mins; format: functional; conditions: 0.5 h
[6] = biological target: Cannabinoid receptor 2 (Homo sapiens) (UniProt P34972); test: Displacement of [3H]CP55940 from human cannabinoid CB2 receptor expressed in CHO cells at 1 uM at pH 7.4 after 1 hr by liquid scintillation counting; format: cell-based
Sequence of Cannabinoid receptor 2 (Homo sapiens) (P34972 whole entry): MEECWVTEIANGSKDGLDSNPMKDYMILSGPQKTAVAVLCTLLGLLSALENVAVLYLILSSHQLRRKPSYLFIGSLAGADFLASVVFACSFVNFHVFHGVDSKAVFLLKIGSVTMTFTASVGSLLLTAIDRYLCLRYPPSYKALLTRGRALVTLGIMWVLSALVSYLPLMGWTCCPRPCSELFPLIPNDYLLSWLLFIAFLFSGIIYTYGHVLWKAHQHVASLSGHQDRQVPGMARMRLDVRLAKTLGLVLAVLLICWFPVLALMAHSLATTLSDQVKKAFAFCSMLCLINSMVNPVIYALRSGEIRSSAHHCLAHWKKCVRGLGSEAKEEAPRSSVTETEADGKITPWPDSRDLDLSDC

hERG (KCNH2) [7] = biological target: T1, hERG (KCNH2); test: Inhibition of human ERG expressed in HEK293 cells assessed as inhibition of potassium channel current at 10 uM after 5 mins by patch clamp assay; format: cell-based; conditions: HEK293 cells expressing human ERG
[8] = AUC (0 to 24 hrs) in Swiss albino mouse at 30 mg/kg, po; format: ADME, organism-based; parameters: time < 24 hr, dose 30 mg/kg, route oral; conditions: plasma
Mus musculus [9] = test: Antiobesity activity in Swiss albino mouse assessed as reduction in acute food intake at 10 mg/kg, po administered as single dose relative to control; format: functional; parameters: scale not given: the % may be the effect or the level left
Mus musculus [10] = test: Antiobesity activity in Swiss albino mouse assessed as reduction in acute food intake administered orally as single dose; format: functional, organism-based
[11] = Half life in Swiss albino mouse at 30 mg/kg, po; format: ADME, organism-based; parameters: dose 30 mg/kg, route oral; conditions: in vivo
[12] = Ratio of drug level in brain to plasma in Swiss albino mouse at 30 mg/kg, po measured 1 hr post dose; format: ADME, organism-based; parameters: dose 30 mg/kg, route oral; conditions: read-out: BPR
Mus musculus [13] = test: Antiobesity activity in Swiss albino mouse assessed as reduction in acute food intake at 30 mg/kg, po administered as single dose relative to control; format: functional; parameters: scale not given: the % may be the effect or the level left
Mus musculus [14] = test: Antiobesity activity in C57BL/6 mouse assessed as reduction in body weight at 10 mg/kg, po QD for 15 days; format: functional; parameters: scale not given: the % may be the effect or the level left
[15] = Cmax in Swiss albino mouse at 30 mg/kg, po; format: ADME, organism-based; parameters: dose 30 mg/kg, route oral; conditions: in vivo
Mus musculus [16] = test: Inhibition of WIN-55212 induced hypothermia in Swiss albino mouse assessed as change temperature at 3 mg/kg, po administered 30 mins after WIN55212 challenge measured after 30 mins; format: functional; conditions: 0.5 h

SMILES: CCCS(=O)(=O)Oc1ccc(-c2c(C)c(C(=O)NC(C)(C)c3nnnn3C)nn2-c2ccc(Cl)cc2Cl)cc1
pIC50 (Cannabinoid receptor 1): 8.96

SMILES: CCOC(=O)COc1ccc(-c2c(CC)c(C(=O)NC(C)(C)c3nnnn3C)nn2-c2ccc(Cl)cc2Cl)cc1
inhibition [1]: 32%

SMILES: Cc1c(C(=O)NC(C)(C)c2nnnn2C)nn(-c2ccc(Cl)cc2Cl)c1-c1ccc(Cl)cc1
pIC50 (Cannabinoid receptor 1): 6.84

SMILES: Cn1nnnc1C(C)(C)NC(=O)c1nn(-c2ccc(Cl)cc2Cl)c2c1CCCc1cc(Cl)ccc1-2
pIC50 (Cannabinoid receptor 1): 7.51

SMILES: CCc1c(C(=O)NC(C)(C)c2nnnn2C)nn(-c2ccc(Cl)cc2Cl)c1-c1ccc(OCC(=O)O)cc1
inhibition [2]: 25%
pIC50 (Cannabinoid receptor 1): < 6.00

SMILES: CCc1c(C(=O)NC(C)(C)c2nnnn2C)nn(-c2ccc(Cl)cc2Cl)c1-c1ccc(OC)cc1
pIC50 (Cannabinoid receptor 1): 8.30

SMILES: CC(C)(NC(=O)c1nn(-c2ccc(Cl)cc2Cl)c(-c2ccc(Cl)cc2)c1CO)c1noc(C(F)(F)F)n1
pIC50 [3]: < 4.52
inhibition at 5 min, 30 µM (hERG (KCNH2) [4]): 38.9%
pIC50 (Cannabinoid receptor 1): 9.40
inhibition in vivo at 10 mg/kg (Mus musculus [5]): 97%
inhibition [6]: 34%

SMILES: Cc1csc(C(C)(C)NC(=O)c2nn(-c3ccc(Cl)cc3Cl)c(-c3ccc(Cl)cc3)c2C)n1
pIC50 (Cannabinoid receptor 1): 7.82

SMILES: CCc1c(C(=O)NC(C)(C)c2nnnn2C)nn(-c2ccc(Cl)cc2Cl)c1-c1ccc(O)cc1
inhibition [1]: 23%

SMILES: CCc1c(C(=O)NC(C)(C)c2nnnn2C)nn(-c2ccc(Cl)cc2Cl)c1-c1ccc(C#N)cc1
pIC50 (Cannabinoid receptor 1): 7.66

SMILES: CCc1c(C(=O)NC(C)(C)c2nnnn2C)nn(-c2ccc(Cl)cc2Cl)c1-c1ccc(Cl)cc1
inhibition at 5 min, 10 µM (hERG (KCNH2) [7]): 59.7%
pIC50 (Cannabinoid receptor 1): 9.30
inhibition in vivo at 10 mg/kg (Mus musculus [5]): 96%
inhibition [6]: 16%

SMILES: CCc1c(C(=O)NC(C)(C)c2nnnn2C)nn(-c2ccc(Cl)cc2Cl)c1-c1ccc(C(=O)O)cc1
inhibition [2]: 50%

SMILES: Cc1c(C(=O)NC2(c3noc(C(F)(F)F)n3)CC2)nn(-c2ccc(Cl)cc2Cl)c1-c1ccc(Cl)cc1
AUC(0-t) at 24 h [8]: 4300 ng·h/mL
Activity (Mus musculus [9]): 31%
Activity (Mus musculus [10]): Dose-dependent effect
pIC50 [3]: < 4.52
half-life [11]: 4.22 h
Kp at 1 h [12]: 0.21
Activity (Mus musculus [13]): 53%
inhibition at 5 min, 30 µM (hERG (KCNH2) [4]): 7.2%
pIC50 (Cannabinoid receptor 1): 10.00
Activity (Mus musculus [14]): 11%
Cmax [15]: 350 ng/mL
inhibition in vivo at 10 mg/kg (Mus musculus [5]): 97%
inhibition [6]: 49%

SMILES: Cc1ncc(C(C)(C)NC(=O)c2nn(-c3ccc(Cl)cc3Cl)c(-c3ccc(Cl)cc3)c2C)s1
pIC50 (Cannabinoid receptor 1): 7.92

SMILES: Cc1c(C(=O)NC(C)(C)c2nnnn2C)nc(-c2ccc(Cl)cc2Cl)n1-c1ccc(Cl)cc1
inhibition [1]: 42%

SMILES: CCc1c(C(=O)NC(C)(C)c2nnnn2C)nc(-c2ccc(Cl)cc2Cl)n1-c1ccc(Cl)cc1
pIC50 (Cannabinoid receptor 1): 7.44

SMILES: CCc1c(C(=O)NC(C)(C)c2nnn(C)n2)nn(-c2ccc(Cl)cc2Cl)c1-c1ccc(Cl)cc1
pIC50 (Cannabinoid receptor 1): 7.41

SMILES: CCc1c(C(=O)NC(C)(C)c2nnnn2C)nn(-c2ccc(Cl)cc2Cl)c1-c1ccc(Br)cc1
pIC50 [3]: 4.64
pIC50 (Cannabinoid receptor 1): 10.00
inhibition in vivo at 10 mg/kg (Mus musculus [5]): 83%
inhibition [6]: 27%

SMILES: Cc1c(C(=O)NN2CCCCC2)nn(-c2ccc(Cl)cc2Cl)c1-c1ccc(Cl)cc1 [RIMONABANT]
Activity (Mus musculus [9]): 71%
pIC50 [3]: 5.55
Kp at 1 h [12]: 3.64
inhibition in vivo at 3 mg/kg (Mus musculus [16]): 99%
inhibition [6]: 34%

SMILES: Cc1c(C(=O)NC(C)(C)c2cn3cc(C(F)(F)F)ccc3n2)nn(-c2ccc(Cl)cc2Cl)c1-c1ccc(Cl)cc1
pIC50 (Cannabinoid receptor 1): 7.20

SMILES: COc1ccc2c(c1)CCCc1c(C(=O)NC(C)(C)c3nnnn3C)nn(-c3ccc(Cl)cc3Cl)c1-2
inhibition [1]: 38%

SMILES: C[C@H](NC(=O)C(C)(C)Oc1ccc(C(F)(F)F)cn1)[C@@H](Cc1ccc(Cl)cc1)c1cccc(C#N)c1 [TARANABANT]
pIC50 (Cannabinoid receptor 1): 9.52

SMILES: Cc1c(C(=O)NC(C)(C)c2cn3cc(Cl)ccc3n2)nn(-c2ccc(Cl)cc2Cl)c1-c1ccc(Cl)cc1
pIC50 (Cannabinoid receptor 1): 7.06

SMILES: Cc1c(C(=O)NC(C)(C)c2cn3cccnc3n2)nn(-c2ccc(Cl)cc2Cl)c1-c1ccc(Cl)cc1
pIC50 (Cannabinoid receptor 1): 6.92

SMILES: Cc1c(C(=O)NC(C)(C)c2cn3ccsc3n2)nn(-c2ccc(Cl)cc2Cl)c1-c1ccc(Cl)cc1
pIC50 (Cannabinoid receptor 1): 7.96

SMILES: Cc1c(C(=O)NC(C)(C)c2nnn(C)n2)nn(-c2ccc(Cl)cc2Cl)c1-c1ccc(Cl)cc1
pIC50 (Cannabinoid receptor 1): 7.06

SMILES: O=C(NC1(c2noc(C(F)(F)F)n2)CC1)c1nn(-c2ccc(Cl)cc2Cl)c(-c2ccc(Cl)cc2)c1CO
pIC50 (Cannabinoid receptor 1): 10.00
inhibition in vivo at 10 mg/kg (Mus musculus [5]): 99%
inhibition [6]: 18%

SMILES: Cc1c(C(=O)NC(C)(C)c2nnc(C(F)(F)F)o2)nn(-c2ccc(Cl)cc2Cl)c1-c1ccc(Cl)cc1
pIC50 (Cannabinoid receptor 1): 8.22
inhibition in vivo at 10 mg/kg (Mus musculus [5]): 97%
inhibition [6]: 64%

SMILES: CCOC(=O)c1ccc(-c2c(CC)c(C(=O)NC(C)(C)c3nnnn3C)nn2-c2ccc(Cl)cc2Cl)cc1
pIC50 (Cannabinoid receptor 1): 7.77

The remaining lines, values ahead:

pIC50 (Cannabinoid receptor 1): 8.22
SMILES: CCC(C)(NC(=O)c1nn(-c2ccc(Cl)cc2Cl)c(-c2ccc(Cl)cc2)c1C)c1noc(C(F)(F)F)n1 (stereo not given)

pIC50 (Cannabinoid receptor 1): 9.10
SMILES: Cc1c(C(=O)NC2(c3noc(C(F)(F)F)n3)CCC2)nn(-c2ccc(Cl)cc2Cl)c1-c1ccc(Cl)cc1

pIC50 (Cannabinoid receptor 1): 7.48
SMILES: Cc1nc(C(C)(C)NC(=O)c2nn(-c3ccc(Cl)cc3Cl)c(-c3ccc(Cl)cc3)c2C)no1

pIC50 (Cannabinoid receptor 1): 7.89
SMILES: CC(C)(NC(=O)c1cn(-c2ccc(Cl)cc2Cl)c(-c2ccc(Cl)cc2)n1)c1nnc(C(F)(F)F)o1

pIC50 (Cannabinoid receptor 1): 8.00
SMILES: CCOC(=O)Cc1csc(C(C)(C)NC(=O)c2nn(-c3ccc(Cl)cc3Cl)c(-c3ccc(Cl)cc3)c2C)n1

inhibition [2]: 50%
SMILES: Cc1c(C(=O)NC(C)(C)c2nc(CC(=O)O)cs2)nn(-c2ccc(Cl)cc2Cl)c1-c1ccc(Cl)cc1

pIC50 (Cannabinoid receptor 1): 7.52
SMILES: CC(C)(NC(=O)c1cn(-c2ccc(Cl)cc2Cl)c(-c2ccc(Cl)cc2)n1)c1noc(C(F)(F)F)n1

pIC50 (Cannabinoid receptor 1): 7.66
SMILES: CCOC(=O)c1sc(C(C)(C)NC(=O)c2nn(-c3ccc(Cl)cc3Cl)c(-c3ccc(Cl)cc3)c2C)nc1C

pIC50 (Cannabinoid receptor 1): 8.40
SMILES: COCc1c(C(=O)NC(C)(C)c2noc(C(F)(F)F)n2)nn(-c2ccc(Cl)cc2Cl)c1-c1ccc(Cl)cc1

pIC50 (Cannabinoid receptor 1): 8.52
SMILES: Cc1c(C(=O)NC(C)(C)c2noc(C(F)(F)F)n2)nn(-c2ccc(Cl)cc2Cl)c1-c1ccc(Cl)cc1

pIC50 (Cannabinoid receptor 1): 8.52
SMILES: CCc1c(C(=O)NC(C)(C)c2noc(C(F)(F)F)n2)nc(-c2ccc(Cl)cc2Cl)n1-c1ccc(Cl)cc1

inhibition [1]: 44%
inhibition [2]: 66%
SMILES: O=C(NC1(c2noc(C(F)(F)F)n2)CC1)c1nn(-c2ccc(Cl)cc2Cl)c(-c2ccc(Cl)cc2)c1C(=O)O

pIC50 (Cannabinoid receptor 1): 8.70
SMILES: Cc1c(C(=O)NC(C)(C)c2nc(C(F)(F)F)cs2)nn(-c2ccc(Cl)cc2Cl)c1-c1ccc(Cl)cc1

pIC50 (Cannabinoid receptor 1): 9.00
SMILES: CCOC(=O)c1c(C(=O)NC2(c3noc(C(F)(F)F)n3)CC2)nn(-c2ccc(Cl)cc2Cl)c1-c1ccc(Cl)cc1
